Target: T1, NEP (Rattus norvegicus, UniProt P07861)
T1 sequence (P07861 1-750): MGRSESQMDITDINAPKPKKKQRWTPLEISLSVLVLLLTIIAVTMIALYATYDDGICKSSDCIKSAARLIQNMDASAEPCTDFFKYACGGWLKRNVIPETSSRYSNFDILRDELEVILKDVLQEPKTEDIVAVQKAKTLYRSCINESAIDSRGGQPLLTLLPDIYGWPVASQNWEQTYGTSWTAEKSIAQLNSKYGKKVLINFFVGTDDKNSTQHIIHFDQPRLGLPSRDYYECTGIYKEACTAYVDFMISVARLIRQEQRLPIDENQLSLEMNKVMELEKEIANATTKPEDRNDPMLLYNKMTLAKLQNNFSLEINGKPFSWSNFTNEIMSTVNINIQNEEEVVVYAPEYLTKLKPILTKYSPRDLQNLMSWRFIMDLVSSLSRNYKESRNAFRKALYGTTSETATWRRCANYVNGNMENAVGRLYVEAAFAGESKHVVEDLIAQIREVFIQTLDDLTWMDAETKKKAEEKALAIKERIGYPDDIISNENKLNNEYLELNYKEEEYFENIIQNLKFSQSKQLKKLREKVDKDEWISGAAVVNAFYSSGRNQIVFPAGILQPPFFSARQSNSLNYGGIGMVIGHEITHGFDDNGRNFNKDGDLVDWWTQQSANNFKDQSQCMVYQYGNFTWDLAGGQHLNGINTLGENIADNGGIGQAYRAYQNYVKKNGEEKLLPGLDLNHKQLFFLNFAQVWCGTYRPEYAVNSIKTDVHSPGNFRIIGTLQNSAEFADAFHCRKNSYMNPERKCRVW
Test: NEP inhibition activity using rat renal cortex (Experiment A-1)
Type: biochemical
Set-up: membrane fraction prepared from rat renal cortex; from tissue; host or cells: rat renal cortex, membrane fraction (method of Booth and Kenny)
Conditions: rat renal cortex membrane fraction
Description: The NEP activity was determined by using a membrane fraction prepared from rat renal cortex in accordance with the method of Booth and Kenny (A Rapid Metod for the Purificaton of Microvilli from Rabbit Kidney., Andrew G. Booth and A. John Kenny, Biochem j., 1974, 142, […].).
The NEP activity was determined by the following manner in accordance with the method of Orlowsky and Wilk (Purification and Specificity of a Membrane-Bound Metalloendopeptidase from Bovine Pituitaries., Marian Orlowsky and Shrwin Wilk, Biochemistry, 1981, 20, 4942-4950.).
As a substrate, benzoyl-glycyl-arginyl-arginyl-2-naphthylamide (benzoyl-Gly-Arg-Arg-2-naphthylamide (Nova Biochem, Switzerland)) was used. In the presence of an NEP enzyme preparation and excessive leucine aminopeptidase (sigma chemical Co., U.S.A.), the liberated naphthylamine was made to undergo color development with first garnet (Sigma chemical Co., U.S.A.), followed by the measurement of the absorbance at a wavelength of 540 nm.
With respect to the NEP inhibition activity, the inhibitor was added to the experimental system as described above in such a manner as to give the final concentrations of 1, 3, 10, 30, 100, 300 and 1000 nM, an inhibition curve was prepared, and then the concentration at which 50% inhibition was achieved was taken as IC50.

IC50 [nM] | SMILES
13 | CC[C@H](C)[C@H](S)C(=O)NC1CCc2ccccc2N(CC(=O)O)C1=O (stereo partly drawn) [Example A-9, 1-Carboxymethyl-3-[(2S,3S)-2-mercapto-3-methylvarelylamino]-1H-[1]benzazepin-2-one]
6.2 | CC[C@H](C)[C@H](S)C(=O)N[C@H]1CCc2ccccc2N(CC(=O)O)C1=O [Example A-11, (S)-3-[(2S,3S)-2-Mercapto-3-methylvarelylamino]-1-carboxymethyl-2,3,4,5-tetrahydro-1H-[1]benzazepin-2-one]

— patent publication US5679671A, “Amino acid derivative” (Eisai Co., Ltd., priority 1993, dated 1997)
